≈ marks a conversion by molar mass, not a printed value.
Columns and labels:
[1] = target: mouse TAAR1 (Mus musculus, UniProt Q923Y8); assay: Competition binding assay, mouse TAAR1
[2] = target: rat TAAR1 (Rattus norvegicus, UniProt Q923Y9); assay: Competition binding assay, rat TAAR1
[3] = target: TAAR1; assay: Competition binding assay, cynomolgus monkey TAAR1
[4] = target: T1, TAAR1 (Homo sapiens, UniProt Q96RJ0); assay: Competition binding assay, human TAAR1
T1 sequence (Q96RJ0 1-339): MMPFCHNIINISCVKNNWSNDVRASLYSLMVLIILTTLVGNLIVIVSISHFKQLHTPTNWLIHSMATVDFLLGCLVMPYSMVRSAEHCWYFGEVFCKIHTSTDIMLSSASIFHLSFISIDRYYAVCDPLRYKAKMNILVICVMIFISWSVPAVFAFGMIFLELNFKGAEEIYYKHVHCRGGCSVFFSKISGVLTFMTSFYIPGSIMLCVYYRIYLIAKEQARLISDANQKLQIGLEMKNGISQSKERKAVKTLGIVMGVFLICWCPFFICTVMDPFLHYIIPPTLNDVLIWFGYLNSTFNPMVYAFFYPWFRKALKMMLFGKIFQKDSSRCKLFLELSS

[5] = Plasma stability of non-radioactive reference, mouse plasma; format: in vitro ADME; conditions: 37 °C, up to 5 h
[6] = Plasma stability of non-radioactive reference, rat plasma; format: in vitro ADME; conditions: 37 °C, up to 5 h
[7] = Plasma stability of non-radioactive reference, non-human primate plasma; format: in vitro ADME; conditions: 37 °C, up to 5 h
[8] = Plasma stability of non-radioactive reference, human plasma; format: in vitro ADME; conditions: 37 °C, up to 5 h
[9] = 4-week repeat dose toxicity study, dogs; format: in vivo; conditions: 4-week repeat dose toxicity study
[10] = 4-week repeat dose toxicity study, rats; format: in vivo; conditions: 4-week repeat dose toxicity study
[11] = Aqueous solubility; format: physicochemical; conditions: pH 6.5 in 0.05 M phosphate buffer
From the text: (§1) ^a Aqueous solubility at pH 6.5 in 0.05 M phosphate buffer; ^b pH 7.4

[12] = logD (physicochemical profiling); conditions: pH 7.4
From the text: as §1

[13] = PAMPA permeability; format: in vitro ADME
From the text: (§2) Supplement 259_2025_7564_MOESM1_ESM.docx, table 1: Supplemental Table 1. Physicochemical properties of TAAR1-2203. | column: 194.2

[14] = Chemical stability in aqueous buffer; format: physicochemical; conditions: pH 1, 4, 6.5 and 8 for 2 h at 37 °C
From the text: as §2

[15] = Clearance in human liver microsomes; format: in vitro ADME
From the text: (§3) Supplement 259_2025_7564_MOESM1_ESM.docx, table 2: Supplemental Table 2. ADME profile of TAAR1 ligand TAAR1-2203. | column: 14 / 10

[16] = Clearance in rat liver microsomes; format: in vitro ADME
From the text: as §3

[17] = Clearance in human hepatocytes; format: in vitro ADME
From the text: as §3

[18] = Clearance in rat hepatocytes; format: in vitro ADME
From the text: as §3

[19] = Plasma protein binding of TAAR1-2203, human plasma; format: in vitro ADME
[20] = Plasma protein binding of TAAR1-2203, rat plasma; format: in vitro ADME
[21] = target: human P-glycoprotein (Homo sapiens, UniProt P08183); assay: P-glycoprotein efflux assay, human P-gp; format: in vitro ADME
human P-glycoprotein, sequence (P08183 whole entry): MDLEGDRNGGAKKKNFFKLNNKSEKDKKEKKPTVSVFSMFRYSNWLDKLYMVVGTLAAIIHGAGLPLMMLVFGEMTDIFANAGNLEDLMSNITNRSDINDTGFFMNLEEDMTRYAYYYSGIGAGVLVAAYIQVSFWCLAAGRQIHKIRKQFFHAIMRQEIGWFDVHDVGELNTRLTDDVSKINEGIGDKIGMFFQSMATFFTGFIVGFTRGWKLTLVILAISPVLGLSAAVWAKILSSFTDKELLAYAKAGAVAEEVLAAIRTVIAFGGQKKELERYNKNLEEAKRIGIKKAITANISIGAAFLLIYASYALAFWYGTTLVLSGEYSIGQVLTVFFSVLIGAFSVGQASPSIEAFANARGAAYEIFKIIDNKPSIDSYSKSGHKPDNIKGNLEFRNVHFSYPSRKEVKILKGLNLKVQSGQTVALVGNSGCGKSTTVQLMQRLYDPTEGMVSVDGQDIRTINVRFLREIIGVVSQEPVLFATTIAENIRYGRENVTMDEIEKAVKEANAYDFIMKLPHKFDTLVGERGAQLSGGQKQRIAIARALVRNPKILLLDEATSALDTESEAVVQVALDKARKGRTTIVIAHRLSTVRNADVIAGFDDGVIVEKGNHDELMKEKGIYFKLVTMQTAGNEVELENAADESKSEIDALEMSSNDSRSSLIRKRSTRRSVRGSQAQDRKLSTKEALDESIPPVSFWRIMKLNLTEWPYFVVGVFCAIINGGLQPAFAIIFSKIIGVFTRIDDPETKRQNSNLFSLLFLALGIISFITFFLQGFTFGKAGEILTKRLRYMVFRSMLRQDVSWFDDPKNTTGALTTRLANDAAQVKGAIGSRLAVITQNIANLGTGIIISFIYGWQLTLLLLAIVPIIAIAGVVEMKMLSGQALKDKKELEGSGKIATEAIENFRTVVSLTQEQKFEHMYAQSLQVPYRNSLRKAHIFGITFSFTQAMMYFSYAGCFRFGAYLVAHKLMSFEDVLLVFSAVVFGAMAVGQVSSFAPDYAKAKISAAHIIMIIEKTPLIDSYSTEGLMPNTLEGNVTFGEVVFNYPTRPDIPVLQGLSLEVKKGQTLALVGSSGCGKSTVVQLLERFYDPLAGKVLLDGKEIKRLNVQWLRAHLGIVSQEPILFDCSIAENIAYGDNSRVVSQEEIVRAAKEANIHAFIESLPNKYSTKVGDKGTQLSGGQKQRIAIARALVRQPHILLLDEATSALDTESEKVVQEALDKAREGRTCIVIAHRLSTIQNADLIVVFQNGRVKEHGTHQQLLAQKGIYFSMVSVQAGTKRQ

[22] = target: mouse P-glycoprotein (Mus musculus, UniProt P21447); assay: P-glycoprotein efflux assay, mouse P-gp; format: in vitro ADME
mouse P-glycoprotein, sequence (P21447 whole entry): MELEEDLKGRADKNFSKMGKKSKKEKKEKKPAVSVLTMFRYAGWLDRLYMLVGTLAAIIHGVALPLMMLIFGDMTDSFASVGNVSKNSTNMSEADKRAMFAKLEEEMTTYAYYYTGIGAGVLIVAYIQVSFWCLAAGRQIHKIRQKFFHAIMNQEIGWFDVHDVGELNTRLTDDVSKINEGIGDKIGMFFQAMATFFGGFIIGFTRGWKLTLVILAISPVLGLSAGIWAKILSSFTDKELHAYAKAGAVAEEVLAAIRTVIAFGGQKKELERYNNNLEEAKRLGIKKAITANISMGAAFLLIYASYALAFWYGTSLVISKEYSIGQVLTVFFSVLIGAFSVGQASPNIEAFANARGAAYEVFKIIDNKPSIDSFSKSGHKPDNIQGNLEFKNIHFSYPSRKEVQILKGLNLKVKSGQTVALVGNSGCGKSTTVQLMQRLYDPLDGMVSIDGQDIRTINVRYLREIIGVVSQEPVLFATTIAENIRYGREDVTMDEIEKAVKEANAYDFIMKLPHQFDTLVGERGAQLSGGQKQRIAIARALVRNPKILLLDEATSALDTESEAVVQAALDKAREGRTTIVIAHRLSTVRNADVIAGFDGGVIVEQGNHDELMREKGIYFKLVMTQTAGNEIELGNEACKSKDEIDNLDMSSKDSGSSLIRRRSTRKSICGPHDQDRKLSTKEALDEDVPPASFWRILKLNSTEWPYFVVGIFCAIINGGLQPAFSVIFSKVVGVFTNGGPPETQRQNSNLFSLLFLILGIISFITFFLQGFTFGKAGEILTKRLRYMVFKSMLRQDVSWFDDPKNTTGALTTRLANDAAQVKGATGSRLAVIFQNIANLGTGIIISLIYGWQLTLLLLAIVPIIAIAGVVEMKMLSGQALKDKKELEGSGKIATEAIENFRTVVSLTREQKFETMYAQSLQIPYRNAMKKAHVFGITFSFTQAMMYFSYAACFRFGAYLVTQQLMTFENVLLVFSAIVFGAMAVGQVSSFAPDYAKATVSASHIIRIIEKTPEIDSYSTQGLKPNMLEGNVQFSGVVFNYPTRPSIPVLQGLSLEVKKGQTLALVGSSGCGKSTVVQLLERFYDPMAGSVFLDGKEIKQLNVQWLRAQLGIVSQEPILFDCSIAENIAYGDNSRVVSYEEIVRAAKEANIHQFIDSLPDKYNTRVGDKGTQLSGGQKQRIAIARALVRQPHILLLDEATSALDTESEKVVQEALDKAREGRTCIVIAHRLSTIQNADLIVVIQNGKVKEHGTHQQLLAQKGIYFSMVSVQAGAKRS

rat TAAR1, sequence (Q923Y9 whole entry): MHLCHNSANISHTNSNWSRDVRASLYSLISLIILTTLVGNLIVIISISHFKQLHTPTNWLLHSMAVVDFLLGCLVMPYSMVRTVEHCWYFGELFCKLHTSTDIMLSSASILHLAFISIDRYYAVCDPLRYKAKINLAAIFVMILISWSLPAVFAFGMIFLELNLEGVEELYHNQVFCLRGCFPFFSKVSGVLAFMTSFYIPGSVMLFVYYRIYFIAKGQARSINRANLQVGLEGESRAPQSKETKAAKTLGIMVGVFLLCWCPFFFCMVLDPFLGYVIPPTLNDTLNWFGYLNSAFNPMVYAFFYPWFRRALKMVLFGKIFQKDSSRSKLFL
mouse TAAR1, sequence (Q923Y8 whole entry): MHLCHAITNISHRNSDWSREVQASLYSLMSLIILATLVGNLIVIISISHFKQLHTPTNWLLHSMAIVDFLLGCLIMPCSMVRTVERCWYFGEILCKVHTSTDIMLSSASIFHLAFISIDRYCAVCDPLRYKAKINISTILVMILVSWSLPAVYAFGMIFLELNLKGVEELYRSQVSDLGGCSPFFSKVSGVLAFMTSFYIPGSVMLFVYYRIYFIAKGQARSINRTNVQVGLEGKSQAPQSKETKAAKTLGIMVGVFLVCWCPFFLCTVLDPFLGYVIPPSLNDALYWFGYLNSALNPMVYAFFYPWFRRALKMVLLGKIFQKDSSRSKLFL

Cc1c(F)cccc1[C@H]1COC(N)=N1 [TAAR1-2203]
Ki [1]: 0.9 nM | Ki [2]: 7.4 nM | Ki [3]: 22.5 nM | Ki [4]: 5.7 nM | Stability in mouse plasma [5]: No degradation was observed | Stability in rat plasma [6]: No degradation was observed | Stability in non-human primate plasma [7]: No degradation was observed | Stability in human plasma [8]: No degradation was observed | Doses well tolerated without adverse events, dogs [9]: up to 3 mg/kg | Doses well tolerated without adverse events, rats [10]: ≤ 10 mg/kg | Solubility [11]: 210 µg/mL (≈ 1080 µM) | logD [12]: 1.12 | PAMPA Peff [13]: 14.5 cm/s*10E^-6 | Chemical stability in aqueous buffer [14]: Stable at pH 1, 4, 6.5 and 8 for 2 h at 37 °C | human clearance in microsomes [15]: 14 µL/min/mg protein | rat clearance in microsomes [16]: 10 µL/min/mg protein | human clearance in hepatocytes [17]: 10 µL/min/10E6 cells | rat clearance in hepatocytes [18]: 1.7 µL/min/10E6 cells | human plasma free fraction ([19]; human): 62% | Free fraction in human plasma ([19]; non-radioactive TAAR1-2203): approximately 60% | Free fraction in rodent plasma ([20]; non-radioactive TAAR1-2203): approximately 60% | Free fraction in rat plasma ([20]; rat): 61% | Papp, AB inhibitor, human P-glycoprotein assay [21]: 41.2 ×10⁻⁶ cm/s | human P-glycoprotein efflux ratio [21]: 1.2 | Papp, AB inhibitor, mouse P-glycoprotein assay [22]: 31.6 ×10⁻⁶ cm/s | mouse P-glycoprotein efflux ratio [22]: 1.0
